Experimental data published in patent US4272437A, “Antibacterial agents, and 4-thio azetidinone intermediates” (priority 1979, dated 1981).
Converted amounts (≈) assume the structure as drawn. Read-outs that look alike come from different tables or passages of the source.

Assays:
Str. pneumoniae A-9585 = experiment: MIC, tube dilution, Streptococcus pneumoniae A9585; type: cell-based; details: overnight 37° C., Nutrient Broth; for MIC: Streptococcus pneumoniae, A9585, Str. pneumoniae A9585, read-out: Minimum Inhibitory Concentration (M.I.C.)
Source text: (§1) Representative compounds of the present invention were subjected to in vitro antibiotic screening against a variety of microorganisms.

Str. pyogenes A-9604 = experiment: MIC, tube dilution, Streptococcus pyogenes A9604; type: cell-based; details: overnight 37° C., Nutrient Broth; for MIC: Streptococcus pyogenes, A9604, Str. pyogenes A9604, read-out: Minimum Inhibitory Concentration (M.I.C.)
Source text: as §1

Staph. aureus A-9537 = experiment: MIC, tube dilution, Staphylococcus aureus A9537; type: cell-based; details: overnight 37° C., Nutrient Broth; for MIC: Staphylococcus aureus, A9537, Staph. aureus A9537, read-out: Minimum Inhibitory Concentration (M.I.C.)
Source text: as §1

[1] = tested on: Staph. aureus A-9537 and 50% serum; experiment: MIC, tube dilution, Staph. aureus A9537 + 50% serum; type: cell-based, Staphylococcus aureus; details: overnight 37° C.; for MIC: Staphylococcus aureus, read-out: Minimum Inhibitory Concentration (M.I.C.)
Source text: as §1

[2] = tested on: Staph. aureus (Pen-Res) A-9606; experiment: MIC, tube dilution, Staphylococcus aureus A9606 (Pen-Res); type: cell-based; details: Staph. aureus A9606 (Pen-Res), overnight 37° C.; for MIC: Staphylococcus aureus, read-out: Minimum Inhibitory Concentration (M.I.C.)
Source text: as §1

[3] = tested on: Staph. aureus (Meth-Res) A-15097; experiment: MIC, tube dilution, Staphylococcus aureus A15097 (Meth-Res); type: cell-based; details: Staph. aureus A15097 (Meth-Res), overnight 37° C.; for MIC: Staphylococcus aureus, read-out: Minimum Inhibitory Concentration (M.I.C.)
Source text: as §1

Str. faecalis A-20688 = experiment: MIC, tube dilution, Streptococcus faecalis A20688; type: cell-based; details: overnight 37° C.; for MIC: Enterococcus faecalis, A20688, Str. faecalis A20688, read-out: Minimum Inhibitory Concentration (M.I.C.)
Source text: as §1

E. coli A-15119 = experiment: MIC, tube dilution, Escherichia coli A15119; type: cell-based; details: overnight 37° C.; for MIC: Escherichia coli, A15119, E. coli A15119, read-out: Minimum Inhibitory Concentration (M.I.C.)
Source text: as §1

E. coli A-20341-1 = experiment: MIC, tube dilution, Escherichia coli A20341-1; type: cell-based
Source text: as §1

K. pneumoniae A-15130 = experiment: MIC, tube dilution, Klebsiella pneumoniae A15130; type: cell-based; details: overnight 37° C.; for MIC: Klebsiella pneumoniae, A15130, K. pneumoniae A15130, read-out: Minimum Inhibitory Concentration (M.I.C.)
Source text: as §1

[4] = tested on: Klebsiella species A20468; experiment: MIC, tube dilution, Klebsiella species A20468; type: cell-based; details: Klebsiella species (K. pneumoniae) A20468, overnight 37° C.; for MIC: read-out: Minimum Inhibitory Concentration (M.I.C.)
Source text: as §1

Pr. mirabilis A-9900 = experiment: MIC, tube dilution, Proteus mirabilis A9900; type: cell-based; details: overnight 37° C.; for MIC: Proteus mirabilis, A9900, Proteus mirabilis A9900, read-out: Minimum Inhibitory Concentration (M.I.C.)
Source text: as §1

Pr. morganii A-15153 = experiment: MIC, tube dilution, Proteus morganii A15153; type: cell-based; details: overnight 37° C.; for MIC: Morganella morganii, A15153, Proteus morganii A15153, read-out: Minimum Inhibitory Concentration (M.I.C.)
Source text: as §1

Ser. marcescens A-20019 = experiment: MIC, tube dilution, Serratia marcescens A20019; type: cell-based; details: overnight 37° C.; for MIC: Serratia marcescens, A20019, Serratia marcescens A20019, read-out: Minimum Inhibitory Concentration (M.I.C.)
Source text: as §1

Ent. cloacae A-9659 = experiment: MIC, tube dilution, Enterobacter cloacae A9659; type: cell-based; details: overnight 37° C.; for MIC: Enterobacter cloacae, A9659, Enterobacter cloacae A9659, read-out: Minimum Inhibitory Concentration (M.I.C.)
Source text: as §1

Ent. cloacae A-9656 = experiment: MIC, tube dilution, Enterobacter cloacae A9656; type: cell-based; details: overnight 37° C.; for MIC: read-out: Minimum Inhibitory Concentration (M.I.C.)
Source text: as §1

Ps. aeruginosa A-9843A = experiment: MIC, tube dilution, Pseudomonas aeruginosa A9843A; type: cell-based; details: overnight 37° C.; for MIC: Pseudomonas aeruginosa, A9843A, read-out: Minimum Inhibitory Concentration (M.I.C.), Pseudomonas aeruginosa A9843A
Source text: as §1

Ps. aeruginosa A-21213 = experiment: MIC, tube dilution, Pseudomonas aeruginosa A21213; type: cell-based; details: overnight 37° C.; for MIC: read-out: Minimum Inhibitory Concentration (M.I.C.)
Source text: as §1

Proteus rettgeri A21203 = experiment: MIC, tube dilution, Proteus rettgeri A21203; type: cell-based; details: overnight 37° C.; for MIC: Providencia rettgeri, read-out: Minimum Inhibitory Concentration (M.I.C.)
Source text: as §1

Proteus vulgaris A21559 = experiment: MIC, tube dilution, Proteus vulgaris A21559; type: cell-based; details: for MIC: Proteus vulgaris
Source text: as §1

[5] = Escherichia coli, A203411, E. coli A20341-1; overnight 37° C.; read-out: Minimum Inhibitory Concentration (M.I.C.)
[6] = Enterobacter cloacae, A9656, Enterobacter cloacae A9656
[7] = Pseudomonas aeruginosa, A21213, Pseudomonas aeruginosa A21213
[8] = A21203, Proteus rettgeri A21203
[9] = A21559, Proteus vulgaris A21559, overnight 37° C., read-out: Minimum Inhibitory Concentration (M.I.C.)
[10] = Escherichia coli, A203411; E. coli A20341-1; overnight 37° C.; read-out: Minimum Inhibitory Concentration (M.I.C.)

SMILES	MIC (Str. pneumoniae A-9585)	MIC (Str. pyogenes A-9604)	MIC (Staph. aureus A-9537)	MIC [1]	MIC [2]	MIC [3]	MIC (Str. faecalis A-20688)	MIC (E. coli A-15119)	MIC (E. coli A-20341-1; [5])	MIC (K. pneumoniae A-15130)	MIC [4]	MIC (Pr. mirabilis A-9900)	MIC (Pr. morganii A-15153)	MIC (Ser. marcescens A-20019)	MIC (Ent. cloacae A-9659)	MIC (Ent. cloacae A-9656; [6])	MIC (Ps. aeruginosa A-9843A)	MIC (Ps. aeruginosa A-21213; [7])	MIC (Proteus rettgeri A21203; [8])	MIC (Proteus vulgaris A21559; [9])	further results
COCOC[C@@H](O)[C@H]1C(=O)N2C(C(=O)O)=C(C)S[C@H]12 (relative stereo) [Example 106, (1'S,5R,6S and 1'R,5S,6R) 6-(1'-Hydroxy-2'-methoxymethoxy-2'-ethyl)-2-methylpenem-3-carboxylic acid (Isomer B)]	32 µg/mL (≈ 111 µM)	32 µg/mL (≈ 111 µM)	63 µg/mL (≈ 218 µM)	> 32 µg/mL	> 63 µg/mL	> 63 µg/mL	> 63 µg/mL	63 µg/mL (≈ 218 µM)	63 µg/mL (≈ 218 µM)	> 63 µg/mL	> 63 µg/mL	63 µg/mL (≈ 218 µM)	> 63 µg/mL	63 µg/mL (≈ 218 µM)	> 63 µg/mL	63 µg/mL (≈ 218 µM)	63 µg/mL (≈ 218 µM)	63 µg/mL (≈ 218 µM)	63 µg/mL (≈ 218 µM)	> 63 µg/mL	
NC1CCC(C2=C(C(=O)O)N3C(=O)C[C@H]3S2)C1 (single isomer, unassigned) [98 isomer C, 2-(3-Aminocyclopentyl)-penem-3-carboxylic acid]																					Minimum Inhibitory Concentration (M.I.C.) (Str. pneumoniae A-9585; Str. pneumoniae A9585): .06 µg/mL; Minimum Inhibitory Concentration (M.I.C.) (Str. pyogenes A-9604; Str. pyogenes A9604): .06 µg/mL; Minimum Inhibitory Concentration (M.I.C.) (Staph. aureus A-9537; Staph. aureus A9537): .13 µg/mL; Minimum Inhibitory Concentration (M.I.C.) [1]: 4 µg/mL; Minimum Inhibitory Concentration (M.I.C.) [2]: > 63 µg/mL; Minimum Inhibitory Concentration (M.I.C.) [3]: > 63 µg/mL; Minimum Inhibitory Concentration (M.I.C.) (Str. faecalis A-20688; Str. faecalis A20688): 32 µg/mL; Minimum Inhibitory Concentration (M.I.C.) (E. coli A-15119; E. coli A15119): 2 µg/mL; Minimum Inhibitory Concentration (M.I.C.) (E. coli A-20341-1; E. coli A20341-1; overnight 37° C.): 16 µg/mL; Minimum Inhibitory Concentration (M.I.C.) (K. pneumoniae A-15130; K. pneumoniae A15130): 8 µg/mL; Minimum Inhibitory Concentration (M.I.C.) [4]: > 63 µg/mL; Minimum Inhibitory Concentration (M.I.C.) (Pr. mirabilis A-9900; Proteus mirabilis A9900): 8 µg/mL; Minimum Inhibitory Concentration (M.I.C.) (Pr. morganii A-15153; Proteus morganii A15153): 16 µg/mL; Minimum Inhibitory Concentration (M.I.C.) (Ser. marcescens A-20019; Serratia marcescens A20019): 8 µg/mL; Minimum Inhibitory Concentration (M.I.C.) (Ent. cloacae A-9659; Enterobacter cloacae A9659): 16 µg/mL; Minimum Inhibitory Concentration (M.I.C.) (Ent. cloacae A-9656; Enterobacter cloacae A9656): 8 µg/mL; Minimum Inhibitory Concentration (M.I.C.) (Ps. aeruginosa A-9843A; Pseudomonas aeruginosa A9843A): 32 µg/mL; Minimum Inhibitory Concentration (M.I.C.) (Ps. aeruginosa A-21213; Pseudomonas aeruginosa A21213): > 63 µg/mL; Minimum Inhibitory Concentration (M.I.C.) (Proteus rettgeri A21203; Proteus rettgeri A21203): 4 µg/mL; Minimum Inhibitory Concentration (M.I.C.) (Proteus vulgaris A21559; Proteus vulgaris A21559, overnight 37° C.): 16 µg/mL
CC(N)=NCC1=C(C(=O)O)N2C(=O)CC2S1 (stereo not drawn) [16 (5)]	1 µg/mL (≈ 4.14 µM)	2 µg/mL (≈ 8.29 µM)	4 µg/mL (≈ 16.6 µM)	32 µg/mL	32 µg/mL (≈ 133 µM)	63 µg/mL (≈ 261 µM)	> 63 µg/mL	16 µg/mL (≈ 66.3 µM)	> 63 µg/mL	63 µg/mL (≈ 261 µM)	> 63 µg/mL	8 µg/mL (≈ 33.2 µM)	16 µg/mL (≈ 66.3 µM)	32 µg/mL (≈ 133 µM)	63 µg/mL (≈ 261 µM)	63 µg/mL (≈ 261 µM)	16 µg/mL (≈ 66.3 µM)	32 µg/mL (≈ 133 µM)	32 µg/mL (≈ 133 µM)	63 µg/mL (≈ 261 µM)	
NC=NCC1=C(C(=O)O)N2C(=O)CC2S1 (stereo not drawn) [16 (6)]	2 µg/mL (≈ 8.8 µM)	4 µg/mL (≈ 17.6 µM)	4 µg/mL (≈ 17.6 µM)	63 µg/mL	125 µg/mL (≈ 550 µM)	63 µg/mL (≈ 277 µM)	125 µg/mL (≈ 550 µM)	16 µg/mL (≈ 70.4 µM)	125 µg/mL (≈ 550 µM)	125 µg/mL (≈ 550 µM)	> 125 µg/mL	16 µg/mL (≈ 70.4 µM)	32 µg/mL (≈ 141 µM)	63 µg/mL (≈ 277 µM)	63 µg/mL (≈ 277 µM)	63 µg/mL (≈ 277 µM)	32 µg/mL (≈ 141 µM)	> 125 µg/mL	32 µg/mL (≈ 141 µM)	32 µg/mL (≈ 141 µM)	
CC(N)C1=C(C(=O)O)N2C(=O)CC2S1 (stereo not drawn) [Example 72, 2-(1'-Aminoethyl)-penem-3-carboxylic Acid]	1 µg/mL (≈ 4.67 µM)	2 µg/mL (≈ 9.34 µM)	4 µg/mL (≈ 18.7 µM)	63 µg/mL	32 µg/mL (≈ 149 µM)	63 µg/mL (≈ 294 µM)	> 125 µg/mL	125 µg/mL (≈ 583 µM)		> 125 µg/mL	> 125 µg/mL	125 µg/mL (≈ 583 µM)	> 125 µg/mL	> 125 µg/mL	> 125 µg/mL		> 125 µg/mL				MIC (E. coli A-20341-1; [10]): > 125 µg/mL; MIC (Ent. cloacae A-9656; Enterobacter cloacae A9656): > 125 µg/mL; MIC (Ps. aeruginosa A-21213; Pseudomonas aeruginosa A21213): > 125 µg/mL; MIC (Proteus rettgeri A21203; Proteus rettgeri A21203): 125 µg/mL (≈ 583 µM); MIC (Proteus vulgaris A21559; A21559, read-out: Minimum Inhibitory Concentration (M.I.C.)): 125 µg/mL (≈ 583 µM)
O=C(O)C1=C(Cn2cnnn2)SC2CC(=O)N12 (stereo not drawn) [Example 76, Sodium 2-(1H-Tetrazolemethyl)-penem-3-carboxylate]	0.03 µg/mL	0.5 µg/mL	1 µg/mL	> 63 µg/mL	4 µg/mL	8 µg/mL	125 µg/mL	4 µg/mL		63 µg/mL	> 125 µg/mL	8 µg/mL	16 µg/mL	16 µg/mL	16 µg/mL	16 µg/mL	> 125 µg/mL		8 µg/mL	8 µg/mL	MIC (E. coli A-20341-1; [10]): > 125 µg/mL; MIC (Ps. aeruginosa A-21213; Pseudomonas aeruginosa A21213): > 125 µg/mL
